Data: patent publication US20050148547A1, “Fungicidal mixtures based on benzamidoxime derivatives and azoles” (priority 2002, published 2005)

Legend:
[1] = test system: Erysiphe [syn. Blumeria] graminis forma specialis. tritici; assay: Activity against mildew of wheat (protective spray, greenhouse); type: in vivo; conditions: wheat seedlings Kanzler, 7 days
Procedure: (§1) Evaluation is carried out by determining the infected leaf areas as a percentage. These percentages are converted into efficacies. The efficacy (W) is calculated as follows using Abbot's formula: [formula] • α corresponds to the fungal infection of the treated plants as a % and • β corresponds to the fungal infection of the untreated (control) plants as a %
(§2) An efficacy of 0 means that the infection level of the treated plants corresponds to that of the untreated control plants; an efficacy of 100 means that the treated plants were not infected.
(§3) The expected efficacies of the mixtures of the active compounds were determined using Colby's formula [R. S. Colby, Weeds 15, 20-22 (1967)] and compared with the observed efficacies. Colby's formula: E=x+y−x·y/100 • E expected efficacy, expressed as a % of the untreated control, when using the mixture of the active compounds A and B at the concentrations a and b • x efficacy, expressed as a % of the untreated control, when using active compound A at a concentration of a • y efficacy, expressed as a % of the untreated control, when using active compound B at a concentration of b
Leaves of wheat seedlings of the cultivar “Kanzler”, grown in pots, were sprayed to runoff point with an aqueous preparation of active compound which had been prepared from a stock solution comprising 10% of active compound, 85% of cyclohexanone and 5% of emulsifier, and 24 hours after the spray coating had dried on the leaves were dusted with spores of mildew of wheat (Erysiphe [syn. Blumeria] graminis forma specialis. tritici). The test plants were then placed in a greenhouse at 20-24° C. and 60-90% relative atmospheric humidity. After 7 days, the extent of the mildew development was determined visually in % infection of the entire leaf area.
(§4) The visually determined values for the percentage of diseased leaf areas were converted into efficacies in % of the untreated control. An efficacy of 0 means the same disease level in the untreated control, an efficacy of 100 means a disease level of 0%. The expected efficacies for the combinations of active compounds were determined using Colby's formula (Colby, S. R. (Calculating synergistic and antagonistic responses of herbicide Combinations”, Weeds, 15, pp. 20-22, 1967) and compared with the observed efficacies.

Puccinia recondita = assay: Curative activity against brown rust of wheat (greenhouse); type: in vivo; conditions: wheat seedlings Kanzler, 7 days
Procedure: The active compounds, separately or together, are formulated as a 10% emulsion in a mixture of 63% by weight of cyclohexanone and 27% by weight of emulsifier, and diluted with water to the desired concentration.
as §1, §2, §3
Leaves of wheat seedlings of the cultivar “Kanzler”, grown in pots, were dusted with spores of brown rust (Puccinia recondita). The pots were then placed in a chamber with high atmospheric humidity (90-95%), at 20-22° C., for 24 hours. During this time the spores germinated and the germinal tubes penetrated into the leaf tissue. The next day, the infected plants were sprayed to runoff point with an aqueous formulation of active compound prepared from a stock solution consisting of 10% of active compound, 85% of cyclohexanone and 5% of emulsifier. After the spray coating had dried on, the test plants were cultivated in a greenhouse at 20-22° C. and 65-70% relative atmospheric humidity for 7 days. Thereafter, the extent of the rust fungus development on the leaves was determined.
as §4, with “disease level as in the” for “disease level in the”, “Colby's formula (Colby. S. R.” for “Colby's formula (Colby, S. R.”

Row | SMILES | Efficacy in % of the untreated control ([1]; 0.015 ppm in the spray liquor) [%] | Efficacy in % of the untreated control ([1]; 0.06 ppm in the spray liquor) [%] | Efficacy in % of the untreated control ([1]; 0.125 ppm in the spray liquor) [%] | Efficacy in % of the untreated control ([1]; 0.25 ppm in the spray liquor) [%] | Efficacy in % of the untreated control ([1]; 1 ppm in the spray liquor) [%] | Efficacy in % of the untreated control (Puccinia recondita; 0.015 ppm in the spray liquor) [%] | Efficacy in % of the untreated control (Puccinia recondita; 0.06 ppm in the spray liquor) [%] | Efficacy in % of the untreated control (Puccinia recondita; 0.25 ppm in the spray liquor) [%] | Efficacy in % of the untreated control (Puccinia recondita; 1 ppm in the spray liquor) [%]
1 | Fc1ccc(C2(Cn3cncn3)OC2c2ccccc2Cl)cc1 (centres unmarked) [epoxiconazole] | 0 | 0 | 0 | 29 | 59 | 0 | 11 | 56 | 
2 | CC1(C)CCC(Cc2ccc(Cl)cc2)C1(O)Cn1cncn1 (centres unmarked) [metconazole] | 0 | 0 |  | 0 |  | 0 | 0 | 56 | 
3 | CCCCC(C#N)(Cn1cncn1)c1ccc(Cl)cc1 (centres unmarked) [myclobutanil] | 0 | 0 |  | 0 |  |  | 0 | 0 | 0
